Source: patent publication US6126909A, “Process and apparatus for the production of BI-212 and a use thereof” (Arch Development Corporation, priority 1999, dated 2000)

Columns and labels:
[1] = tested on: microscopic carcinoma; details: in vivo; cited from earlier work
[2] = tested on: microscopic disease (ovarian carcinoma); details: stage I and stage II patients; cited from earlier work
[3] = tested on: V-79 cells; assay: In vitro irradiation survival (clonogenic), monolayer; assay type: cell-based, Chinese hamster; details: V-79 monolayer
Method: (§1) In vitro studies were carried out using three well known cell lines, the cells from which were exposed to radiation from: (1) an X-ray source; (2) P-32 chromic phosphate; and (3) Bi-212 chloride. The three cell lines that were used are V-79, which is a Chinese hamster lung fibroblast, Ehrlich-Lettre Ascites carcinoma (ATCC CCL 77), which is an ascites producing -tumor, and NIH:OVCAR-3 (ATCC HTB 161), which is a human ovarian adenocarcinoma. These well known cell lines are predictive of what happens in vivo. The cells were grown as monolayers and into spheroid formations and subsequently irradiated, as described herein.
(§2) The V-79 cells were maintained under exponential growth conditions in minimal essential medium (MEM) supplemented with 10 percent fetal bovine serum. The Ehrlich-Lettre Ascites carcinoma cells were maintained in 90 percent NCTC 109 supplemented with 10 percent fetal bovine serum. The NIH:OVCAR-3 cells were maintained in RPMI 1640 and 10 percent fetal bovine serum.
(§3) Cells from each of the cell lines were irradiated by subjecting the cells to X-ray radiation, P-32, and Bi-212. The X-ray source that was used is a General Electric 250 kvp Maxitron, 26 […] (mA) (HVL 1.5 mm Cu) operated at a dose rate of 1.11 Greys per minute (Gy/min). The cells, in both monolayer and spheroid form were exposed at room temperature and then immediately plated for survival.
(§4) Cells in both monolayer and spheroid were exposed to P-32 chromic phosphate. The radiation dose to each sample was calculated as: […]
(§5) After exposure, the cells were washed in phosphate-buffered saline (PBS) and immediately plated for survival.
(§6) The cell lines were also irradiated using Bi-212. Bismuth-212 was eluted from a generator as described in the aforementioned patent to Atcher et al., which was a cation-exchange column supporting Ra-224, with 1 ml of 0.15 N HI, and the generator was purged with 2 ml of distilled deionized water. […] The filter was purged with 1 ml of distilled deionized water, and the radioactivity was assayed using a calibrated 3×3-in. […]
(§7) Cells were exposed over a period of four hours. The dose (D) per microCurie was calculated and corrected for decay as follows: [formula] where V=volume in milliliters, and […]
(§8) Following plating, survival measurements were taken for each of the irradiated cell samples. […] The plates were then stained with crystal violet and colonies greater than 50 cells were scored. The surviving fraction was then determined.
(§9) Intrinsic radiosensitivity (Do) was calculated from the survival curves. […] Relative biological effectiveness (RBE) was determined as the ratio of the absorbed dose of X-ray to that of alpha radiation to produce the same degree of biological effect.

[4] = tested on: NIH:OVCAR-3 cells (spheroids); assay: In vitro irradiation survival, spheroids; assay type: cell-based, human; details: OVCAR-3 spheroids
Method: as §1, §2
To initiate the formation of the spheroids, cells at a concentration of about 500,000 cells per flask were seeded onto petri dishes base-cooked with 1 percent agar MEM without serum. After spheroids having a size of about 20 micrometers (μm) formed, the spheroids were transferred to spinner bottles and maintained for two to three weeks at a temperature of 37° C. in a CO2 incubator until they grew to 10 to 1000 μm. Prior to irradiation, the spheroids were sized and separated using a spheroid separation column.
as §3, §4, §5
The cell lines were also irradiated using Bi-212. […] The filter was purged with 1 ml of distilled deionized water, and the radioactivity was assayed using a calibrated 3×3-in. […]
as §7, §8
Intrinsic radiosensitivity (Do) was calculated from the survival curves. […]

[5] = tested on: NIH:OVCAR-3 cells; assay: In vitro irradiation survival (clonogenic), monolayer; assay type: cell-based, human; details: OVCAR-3 monolayer
Method: as §1, §2, §3, §4, §5, §6, §7, §8, §9

[6] = dose increment reducing survival to 37 percent

Row | SMILES | Treatment and eradication of microscopic carcinoma [1] | Five-year survival rate [2] [%] | D0 (intrinsic radiosensitivity) [3, 6] [Gy] | Relative biological effectiveness (RBE) ([3]; relative to X-ray) | D0 (intrinsic radiosensitivity) ([4]; dose to 37 percent survival) [Gy] | Relative biological effectiveness (RBE) ([4]; relative to X-ray) | D0 (intrinsic radiosensitivity) [5, 6] [Gy] | Relative biological effectiveness (RBE) ([5]; relative to X-ray)
1 | [211At] [At-211, astatine-211] | effective in the treatment and eradication of microscopic carcinoma |  |  |  |  |  |  | 
2 | O=[32P]([O-])([O-])[O-].[Cr+3] [P-32 chromic phosphate, chromic phosphate (P-32), reference compound] |  | 81 | 1.25 | 1.63 | 1.1 | 1.07 | 1.40 | 1.43
3 | [212Pb] [Pb-212, lead-212] | effective in the treatment and eradication of microscopic carcinoma |  |  |  |  |  |  | 
